Among the data in ChEMBL document CHEMBL1141791, “A cytotoxic sesquiterpene alkaloid from the South China Sea gorgonian Subergorgia suberosa” (J Nat Prod, 2005) are IC50 values, retold here.

≈ marks a conversion by molar mass, not a printed value.

The experiment relates to MDA-MB-231. Nature of the experiment: Cytotoxicity against human MDA-MB-231 cells by MTT method. Type of experiment: functional, cell-based.

In general, IC50 refers to the point on the concentration scale where inhibition reaches its midpoint. The low end stands for higher potency, the high end for lower potency. In turn, `C[C@H]1CC[C@H]2[C@H]3CC(=O)[C@H](Cn4c(O)nc5c(O)ncnc54)[C@]31CC2(C)C` registered an IC50 of 8.87 mg/L (≈ 23.9 µM).
